Test results from PubChem BioAssay AID256 (DTP/NCI, 2004).
Several values for one entry are separate records, joined by “and”; a condition that tells them apart may be missing. Identical values can stand only once. Inconclusive results and toxic doses are left out. Residues, ends and D or L forms follow the SMILES beside them. *: point of attachment. Cbz = O=C(OCc1ccccc1)*; OtBu = CC(C)(C)O*

Tested on: CD2F1 mice, L1210 leukemia ip, survival T/C
Assay: NCI In Vivo Anticancer Drug Screen. Data for tumor model L1210 Leukemia (intraperitoneal) in CD2F1 (CDF1) mice
Conditions: higher = longer survival
Summary of the method: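 Ratio T/C, where T is the treated-group value and C the vehicle-dosed control value, from mice implanted with a transplantable tumor.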

[1] = endpoint: mean survival time, dose: 25.0 mg/kg/injection, schedule: Q01DX009 (ip), vehicle: Klucel (hydroxypropylcellulose) (HPC)
[2] = endpoint: mean survival time, dose: 50.0 mg/kg/injection, schedule: Q01DX009 (ip), vehicle: Klucel (hydroxypropylcellulose) (HPC)
[3] = endpoint: mean survival time, dose: 100.0 mg/kg/injection, schedule: Q01DX009 (ip), vehicle: Klucel (hydroxypropylcellulose) (HPC)
[4] = endpoint: mean survival time, dose: 200.0 mg/kg/injection, schedule: Q01DX009 (ip), vehicle: Klucel (hydroxypropylcellulose) (HPC)
[5] = endpoint: mean survival time, dose: 400.0 mg/kg/injection, schedule: Q01DX009 (ip), vehicle: Klucel (hydroxypropylcellulose) (HPC)
[6] = endpoint: mean survival time, dose: 100.0 mg/kg/injection, schedule: Q04DX003 (ip), vehicle: saline with Tween-80
[7] = endpoint: mean survival time, dose: 200.0 mg/kg/injection, schedule: Q04DX003 (ip), vehicle: saline with Tween-80
[8] = endpoint: mean survival time, dose: 400.0 mg/kg/injection, schedule: Q04DX003 (ip), vehicle: saline with Tween-80
[9] = endpoint: mean survival time, dose: 100.0 mg/kg/injection, schedule: Q04DX002 (ip), vehicle: saline with Tween-80
[10] = endpoint: mean survival time, dose: 100.0 mg/kg/injection, schedule: Q01DX001 (ip), vehicle: saline
[11] = endpoint: mean survival time, dose: 200.0 mg/kg/injection, schedule: Q01DX001 (ip), vehicle: saline
[12] = endpoint: mean survival time, dose: 400.0 mg/kg/injection, schedule: Q01DX001 (ip), vehicle: saline
[13] = endpoint: mean survival time, dose: 50.0 mg/kg/injection, schedule: Q01DX009 (ip), vehicle: saline with Tween-80
[14] = endpoint: mean survival time, dose: 100.0 mg/kg/injection, schedule: Q01DX009 (ip), vehicle: saline with Tween-80
[15] = endpoint: mean survival time, dose: 12.5 mg/kg/injection, schedule: Q01DX009 (ip), vehicle: other
[16] = endpoint: mean survival time, dose: 25.0 mg/kg/injection, schedule: Q01DX009 (ip), vehicle: other
[17] = endpoint: mean survival time, dose: 50.0 mg/kg/injection, schedule: Q01DX009 (ip), vehicle: other
[18] = endpoint: mean survival time, dose: 100.0 mg/kg/injection, schedule: Q01DX001 (ip), vehicle: saline with Tween-80
[19] = endpoint: mean survival time, dose: 200.0 mg/kg/injection, schedule: Q01DX001 (ip), vehicle: saline with Tween-80
[20] = endpoint: mean survival time, dose: 400.0 mg/kg/injection, schedule: Q01DX001 (ip), vehicle: saline with Tween-80

`COc1ccc(C(N)=O)cc1N=NN(C)C` was tested, and the T/C (endpoint: mean survival time, dose: 37.5 mg/kg/injection, schedule: Q01DX009 (ip), vehicle: Klucel (hydroxypropylcellulose) (HPC)) was 158 % of control and the T/C (endpoint: mean survival time, dose: 75.0 mg/kg/injection, schedule: Q01DX009 (ip), vehicle: Klucel (hydroxypropylcellulose) (HPC)) was 109 % of control.

In the case of `CC(C)=NNS(=O)(=O)c1ccc(C)cc1`, the T/C [1] is reported as 102 % of control, the T/C [2] is reported as 96 % of control and the T/C [3] is reported as 93 % of control. The T/C [4] was 86 % of control and the T/C [5] was 91 % of control.

With `C(=C\c1ccncc1)/c1ccccc1` the T/C [6] was 93 % of control, the T/C [7] was 92 % of control and the T/C [8] was 93 % of control.

For `CC(=O)C(CNCC(=O)O)(CNCC(=O)O)C(C)=O`, the T/C (endpoint: mean survival time, dose: 25.0 mg/kg/injection, schedule: Q04DX002 (ip), vehicle: saline with Tween-80) was 90 % of control, the T/C (endpoint: mean survival time, dose: 50.0 mg/kg/injection, schedule: Q04DX002 (ip), vehicle: saline with Tween-80) was 94 % of control and the T/C [9] was 94 % of control.

`CCOC(=O)CCC(N)C(=O)OCC` (stereo not drawn) was tested, and the T/C [10] was 95 % of control, the T/C [11] was 88 % of control and the T/C [12] was 93 % of control.

`CSCSCC(N)CO` (stereo not drawn) was tested, and the T/C [1] was 102 % of control, the T/C [2] was 94 % of control and the T/C [3] was 93 % of control. For the same compound, the T/C [4] was 96 % of control and the T/C [5] was 96 % of control.

With `CN1CCN(Cc2nc3cccc4c3c([n+]2[O-])-c2ccccc2-4)CC1` the T/C (endpoint: mean survival time, dose: 12.5 mg/kg/injection, schedule: Q01DX009 (ip), vehicle: saline with Tween-80) was 91 % of control and 97 % of control and 102 % of control, the T/C (endpoint: mean survival time, dose: 25.0 mg/kg/injection, schedule: Q01DX009 (ip), vehicle: saline with Tween-80) was 96 % of control and 101 % of control and 102 % of control and the T/C [13] was 94 % of control and 102 % of control and 103 % of control. For the same compound, the T/C [14] was 117 % of control and 105 % of control and 108 % of control.

For `CO[C@H]1Nc2c(ccc(C)c2O)C(=O)N2C=C(/C=C/C(N)=O)C[C@@H]12`, the T/C (endpoint: mean survival time, dose: 0.1 mg/kg/injection, schedule: Q01DX015 (ip), vehicle: saline) was 111 % of control, the T/C (endpoint: mean survival time, dose: 0.2 mg/kg/injection, schedule: Q01DX015 (ip), vehicle: saline) was 119 % of control and the T/C (endpoint: mean survival time, dose: 0.25 mg/kg/injection, schedule: Q01DX009 (ip), vehicle: saline sonified) was 106 % of control. For the same compound, the T/C (endpoint: mean survival time, dose: 0.36 mg/kg/injection, schedule: Q01DX015 (ip), vehicle: saline) was 120 % of control, the T/C (endpoint: mean survival time, dose: 0.5 mg/kg/injection, schedule: Q01DX009 (ip), vehicle: saline sonified) was 104 % of control and the T/C (endpoint: mean survival time, dose: 1.0 mg/kg/injection, schedule: Q01DX009 (ip), vehicle: saline sonified) was 91 % of control. The T/C (endpoint: mean survival time, dose: 1.0 mg/kg/injection, schedule: Q04DX003 (ip), vehicle: saline with Tween-80) was 117 % of control, the T/C (endpoint: mean survival time, dose: 1.5 mg/kg/injection, schedule: Q04DX003 (ip), vehicle: saline with Tween-80) was 118 % of control and the T/C (endpoint: mean survival time, dose: 25.0 micrograms/kg/injection, schedule: Q01DX009 (ip), vehicle: saline with Tween-80) was 108 % of control. For the same compound, the T/C (endpoint: mean survival time, dose: 50.0 micrograms/kg/injection, schedule: Q01DX009 (ip), vehicle: saline with Tween-80) was 117 % of control, the T/C (endpoint: mean survival time, dose: 100.0 micrograms/kg/injection, schedule: Q01DX009 (ip), vehicle: saline with Tween-80) was 109 % of control and the T/C (endpoint: mean survival time, dose: 200.0 micrograms/kg/injection, schedule: Q01DX009 (ip), vehicle: saline with Tween-80) was 117 % of control. For the same compound, the T/C (endpoint: median survival time, dose: 0.01 mg/kg/injection, schedule: Q01DX005 (ip), vehicle: DMSO) was 102 % of control, the T/C (endpoint: median survival time, dose: 0.02 mg/kg/injection, schedule: Q01DX005 (ip), vehicle: DMSO) was 117 % of control and the T/C (endpoint: median survival time, dose: 0.04 mg/kg/injection, schedule: Q01DX005 (ip), vehicle: DMSO) was 118 % of control.

With `CCCCCCCCCCCCCCCCCC(=O)OC1C(CO)OC2C1Oc1nc(=N)ccn12` (stereo not drawn) the T/C [15] was 167 % of control, the T/C [16] was 229 % of control and the T/C [17] was 301 % of control. For the same compound, the T/C (endpoint: mean survival time, dose: 100.0 mg/kg/injection, schedule: Q01DX009 (ip), vehicle: other) was 280 % of control and the T/C (endpoint: mean survival time, dose: 200.0 mg/kg/injection, schedule: Q01DX009 (ip), vehicle: other) was 96 % of control.

With `O=C(O)CC1CCC1CC(=O)O` (stereo not drawn) the T/C [13] was 90 % of control, the T/C [14] was 96 % of control and 100 % of control and the T/C (endpoint: mean survival time, dose: 200.0 mg/kg/injection, schedule: Q01DX009 (ip), vehicle: saline with Tween-80) was 96 % of control and 103 % of control.

`O=c1ccn(C2CC(O)C(CO)O2)cc1` (stereo not drawn) was tested, and the T/C (endpoint: mean survival time, dose: 100.0 mg/kg/injection, schedule: Q01DX005 (ip), vehicle: saline) was 101 % of control and the T/C (endpoint: mean survival time, dose: 200.0 mg/kg/injection, schedule: Q01DX005 (ip), vehicle: saline) was 100 % of control.

For `Cc1ccc(SC(=O)Cc2ccc([N+](=O)[O-])cc2)cc1`, the T/C [18] was 92 % of control, the T/C [19] was 88 % of control and the T/C [20] was 93 % of control.

In the case of `CC(=O)Nc1ccc(C(=O)c2ccc(C(=O)O)cc2)cc1`, the T/C [9] is reported as 92 % of control and 98 % of control, the T/C [6] is reported as 95 % of control and 100 % of control and the T/C (endpoint: mean survival time, dose: 200.0 mg/kg/injection, schedule: Q04DX002 (ip), vehicle: saline with Tween-80) is reported as 93 % of control and 96 % of control. The T/C [7] was 104 % of control and 109 % of control, the T/C (endpoint: mean survival time, dose: 400.0 mg/kg/injection, schedule: Q04DX002 (ip), vehicle: saline with Tween-80) was 96 % of control and 107 % of control and the T/C [8] was 114 % of control and 104 % of control.

For `OC1CCCCCCCCCCC12OCCO2` (stereo not drawn), the T/C (endpoint: mean survival time, dose: 100.0 mg/kg/injection, schedule: Q04DX002 (ip), vehicle: other) was 98 % of control, the T/C (endpoint: mean survival time, dose: 200.0 mg/kg/injection, schedule: Q04DX002 (ip), vehicle: other) was 113 % of control and the T/C (endpoint: mean survival time, dose: 400.0 mg/kg/injection, schedule: Q04DX002 (ip), vehicle: other) was 95 % of control.

With `O=Cc1c2ccc(Cl)cc2nc2ccc(Cl)cc12` the T/C [6] was 101 % of control, the T/C [7] was 98 % of control and the T/C [8] was 94 % of control.

With `Nc1cc(C(Br)(Br)Br)nc2ccccc12` the T/C (endpoint: mean survival time, dose: 75.0 mg/kg/injection, schedule: Q01DX001 (ip), vehicle: saline) was 103 % of control.

In the case of `CC(=O)OCC(OC(C)=O)C1OC(OCc2ccccc2)C(OC(C)=O)C(OC(C)=O)C1OC(C)=O` (stereo not drawn), the T/C [18] is reported as 95 % of control, the T/C [19] is reported as 86 % of control and the T/C [20] is reported as 88 % of control.

In the case of `CCC(C)C(NC(=O)OCc1ccccc1)C(=O)NC(C(=O)NC(CCC(=O)OC(C)(C)C)C(=O)OC)C(C)C` (stereo not drawn) (Cbz-Ile-Val-Glu(OtBu)-OMe; configuration not given here), the T/C (endpoint: mean survival time, dose: 100.0 mg/kg/injection, schedule: Q04DX003 (ip), vehicle: saline sonified) is reported as 88 % of control and the T/C (endpoint: mean survival time, dose: 400.0 mg/kg/injection, schedule: Q04DX003 (ip), vehicle: saline sonified) is reported as 92 % of control.

For `CSc1nc(N)c2c3c(N)ncnc3n(C3OC(CO)C(O)C3O)c2n1` (stereo not drawn), the T/C (endpoint: mean survival time, dose: 25.0 mg/kg/injection, schedule: Q01DX005 (ip), vehicle: distilled water + Tween-80) was 97 % of control, the T/C (endpoint: mean survival time, dose: 50.0 mg/kg/injection, schedule: Q01DX005 (ip), vehicle: distilled water + Tween-80) was 91 % of control and the T/C (endpoint: mean survival time, dose: 100.0 mg/kg/injection, schedule: Q01DX005 (ip), vehicle: distilled water + Tween-80) was 91 % of control. For the same compound, the T/C (endpoint: mean survival time, dose: 200.0 mg/kg/injection, schedule: Q01DX005 (ip), vehicle: distilled water + Tween-80) was 97 % of control and the T/C (endpoint: mean survival time, dose: 400.0 mg/kg/injection, schedule: Q01DX005 (ip), vehicle: distilled water + Tween-80) was 101 % of control.

`COc1cc2cc3c4ccc(OC)c(OC)c4cc[n+]3c(C)c2cc1OC` (tested in a mixture with another compound) was tested, and the T/C (endpoint: mean survival time, dose: 6.25 mg/kg/injection, schedule: Q01DX009 (ip), vehicle: other) was 108 % of control, the T/C [15] was 106 % of control and the T/C [16] was 116 % of control. For the same compound, the T/C [17] was 97 % of control.

In the case of `CC(=O)O[C@H]1CC[C@@]2(C)[C@@H](CC[C@@H]3[C@@H]2CC(=O)[C@]2(C)[C@@H]4[C@H](C[C@@H]32)O[C@]2(CC[C@@H](C)CO2)[C@H]4C)C1`, the T/C [10] is reported as 96 % of control, the T/C [11] is reported as 101 % of control and the T/C [12] is reported as 98 % of control.
